Test results from patent publication US9067977B2, “Peptides derivatized with A-B-C-D- and their therapeutical use” (Novo Nordisk A/S, priority 2007, dated 2015).
Starred links: 1 amine or outer side, 2 acyl side, 3 side chain; linkers in the order of their positions; H or OH if unused. Non-standard residues stand in square brackets, D forms with d. Residues, ends and D or L forms follow the SMILES beside them. Groups on a side chain read outwards from the residue. *: point of attachment. X1 = O=C(CCCCCCCCCCCCCCCc1nnn[nH]1)NS(=O)(=O)CCCC(=O)*; C20 diacid = O=C(O)CCCCCCCCCCCCCCCCCCC(=O)*; d(βAsp) = O=C(O)[C@@H](CC(=O)[*:2])N[*:1]; γGlu = O=C(O)[C@H](CCC(=O)[*:2])N[*:1]; Desaminohistidyl = O=C(CCc1c[nH]cn1)*; 12Ado = NCCCCCCCCCCCC(=O)O; AEEA = NCCOCCOCC(=O)O; Aib = CC(C)(N)C(=O)O; Inp = O=C(O)C1CCNCC1; Bn = c1ccc(C*)cc1

Target: human serum albumin (HSA) (Homo sapiens, UniProt P02768)
Test: Albumin binding affinity, competition scintillation proximity assay
Conditions: for EC50 at 20 h: human, biotinylated human serum albumin on streptavidin-SPA beads, pH 7.4
Method: Streptavidin-SPA beads (GE Healthcare RPNQ0009) were incubated with biotinylated HSA for 5 hours. The beads were washed with buffer to remove unbound HSA. […] After 20 hours of gentle rocking at room temperature the plates were centrifuged and counted on a TopCounter.

Sequence of human serum albumin (HSA) (P02768 25-609): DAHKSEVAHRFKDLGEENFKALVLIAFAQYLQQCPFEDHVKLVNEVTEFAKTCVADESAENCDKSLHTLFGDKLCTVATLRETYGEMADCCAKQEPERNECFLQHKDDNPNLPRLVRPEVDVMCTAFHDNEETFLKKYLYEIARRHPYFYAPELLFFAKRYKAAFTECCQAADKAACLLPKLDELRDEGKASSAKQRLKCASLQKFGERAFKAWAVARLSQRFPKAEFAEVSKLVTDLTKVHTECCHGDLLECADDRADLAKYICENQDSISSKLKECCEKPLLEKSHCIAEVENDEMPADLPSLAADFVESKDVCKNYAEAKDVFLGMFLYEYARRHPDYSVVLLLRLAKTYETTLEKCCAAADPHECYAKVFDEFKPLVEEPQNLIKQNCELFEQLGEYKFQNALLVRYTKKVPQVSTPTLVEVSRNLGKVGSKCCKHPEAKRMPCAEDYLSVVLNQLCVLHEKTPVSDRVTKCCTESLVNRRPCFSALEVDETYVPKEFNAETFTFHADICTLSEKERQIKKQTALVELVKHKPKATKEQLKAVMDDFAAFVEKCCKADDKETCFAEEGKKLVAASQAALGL

Row | Structure (SMILES) | EC50 [µM] | EC50 at 20 h [µM]
1 | CC[C@H](C)[C@H](NC(=O)[C@H](Cc1ccccc1)NC(=O)[C@H](CC(C)C)NC(=O)[C@H](CCCCNC(=O)COCCOCCNC(=O)COCCOCCNC(=O)C[C@@H](NC(=O)C1CCN(C(=O)CCCCCCCCCCCCCCCCCCC(=O)O)CC1)C(=O)O)NC(=O)[C@@H](NC(=O)[C@H](C)NC(=O)[C@H](CCC(=O)O)NC(=O)[C@H](CCC(=O)O)NC(=O)[C@H](CCC(=O)O)NC(=O)[C@H](CC(C)C)NC(=O)[C@H](CCC(N)=O)NC(=O)[C@H](CCCCN)NC(=O)[C@H](CO)NC(=O)[C@H](CC(C)C)NC(=O)[C@H](CC(=O)O)NC(=O)[C@H](CO)NC(=O)[C@@H](NC(=O)[C@H](Cc1ccccc1)NC(=O)[C@@H](NC(=O)CNC(=O)[C@H](CCC(=O)O)NC(=O)C(C)(C)NC(=O)[C@@H](N)Cc1c[nH]cn1)[C@@H](C)O)[C@@H](C)O)C(C)C)C(=O)N[C@@H](CCC(=O)O)C(=O)N[C@@H](Cc1c[nH]c2ccccc12)C(=O)N[C@@H](CC(C)C)C(=O)N[C@@H](CCCCN)C(=O)N[C@@H](CCC(N)=O)C(=O)NCC(=O)NCC(=O)N1CCC[C@H]1C(=O)N[C@@H](CO)C(=O)N[C@@H](CO)C(=O)NCC(=O)N[C@@H](C)C(=O)N1CCC[C@H]1C(=O)N1CCC[C@H]1C(=O)N1CCC[C@H]1C(=O)N[C@@H](COCc1ccccc1)C(N)=O [Example 2, N-ε^20-{2-[2-(2-{2-[2-((R)-3-carboxy-3-{[1-(19-carboxynonadecanoyl)piperidine-4-carbonyl]amino}propionylamino)ethoxy]ethoxy}acetylamino)ethoxy]ethoxy}acetyl [Aib^2,Leu^14,Lys^20,Gln^28,Ser(O-benzyl)^39] exendin-4 (1-39)amide] (H-H[Aib]EGTFTSDLSKQLEEEAVK([AEEA-AEEA-d(βAsp)-Inp-C20 diacid])LFIEWLKQGGPSSGAPPPS(Bn)-NH2) | 0.3 to 0.8 | –
2 | CC[C@H](C)[C@H](NC(=O)[C@H](Cc1cccc(C(F)(F)F)c1)NC(=O)[C@H](CCC(=O)O)NC(=O)[C@H](CCCNC(=N)N)NC(=O)[C@H](C)NC(=O)[C@H](C)NC(=O)[C@H](CCC(N)=O)NC(=O)[C@H](CCC(=O)O)NC(=O)[C@H](CCC(=O)O)NC(=O)[C@H](CC(C)C)NC(=O)[C@H](Cc1ccc(O)cc1)NC(=O)[C@H](CO)NC(=O)[C@H](CO)NC(=O)[C@@H](NC(=O)[C@H](CC(=O)O)NC(=O)[C@H](CO)NC(=O)[C@@H](NC(=O)[C@H](Cc1ccccc1)NC(=O)[C@@H](NC(=O)CNC(=O)[C@H](CCC(=O)O)NC(=O)[C@H](C)NC(=O)CCc1c[nH]cn1)[C@@H](C)O)[C@@H](C)O)C(C)C)C(=O)N[C@@H](C)C(=O)N[C@@H](Cc1c[nH]c2ccccc12)C(=O)N[C@@H](CC(C)C)C(=O)N[C@H](C(=O)N[C@@H](CCCNC(=N)N)C(=O)NCC(=O)N[C@@H](CCCNC(=N)N)C(=O)N[C@@H](CCCCNC(=O)COCCOCCNC(=O)COCCOCCNC(=O)C[C@@H](NC(=O)C1CCN(C(=O)CCCCCCCCCCCCCCCCC(=O)O)CC1)C(=O)O)C(N)=O)C(C)C [Example 6, N-epsilon37-[2-(2-[2-(2-[2-(2-((R)-3-[1-(17-Carboxyheptadecanoyl)piperidin-4-ylcarbonylamino]3-carboxypropionylamino)ethoxy)ethoxy]acetylamino)ethoxy]ethoxy)acetyl][DesaminoHis7, Glu22 Arg26, Arg 34, Phe(m-CF3)28]GLP-1-(7-37)amide] | – | 0.8 to 2
3 | CC[C@H](C)[C@H](NC(=O)[C@H](Cc1ccccc1)NC(=O)[C@H](CCC(=O)O)NC(=O)[C@H](CCCCNC(=O)COCCOCCNC(=O)CC[C@H](NC(=O)CC[C@H](NC(=O)CCCCCCCCCCCNC(=O)CCCS(=O)(=O)NC(=O)CCCCCCCCCCCCCCCc1nnn[nH]1)C(=O)O)C(=O)O)NC(=O)[C@H](C)NC(=O)[C@H](C)NC(=O)[C@H](CCC(N)=O)NC(=O)CNC(=O)[C@H](CCC(=O)O)NC(=O)[C@H](CC(C)C)NC(=O)[C@H](Cc1ccc(O)cc1)NC(=O)[C@H](CO)NC(=O)[C@H](CO)NC(=O)[C@@H](NC(=O)[C@H](CC(=O)O)NC(=O)[C@H](CO)NC(=O)[C@@H](NC(=O)[C@H](Cc1ccccc1)NC(=O)[C@@H](NC(=O)CNC(=O)[C@H](CCC(=O)O)NC(=O)C(C)(C)NC(=O)[C@@H](N)Cc1c[nH]cn1)[C@@H](C)O)[C@@H](C)O)C(C)C)C(=O)N[C@@H](C)C(=O)N[C@@H](Cc1c[nH]c2ccccc12)C(=O)N[C@@H](CC(C)C)C(=O)N[C@H](C(=O)N[C@@H](CCCNC(=N)N)C(=O)NCC(=O)N[C@@H](CCCNC(=N)N)C(N)=O)C(C)C [Example 44, N-epsilon26-[2-(2-{2-[(S)-4-Carboxy-4-((S)-4-carboxy-4-{12-[4-(16-(1H-tetrazol-5-yl)hexadecanoylsulfamoyl)butyrylamino]dodecanoylamino}butyrylamino)butyrylamino]ethoxy}ethoxy)acetyl][Aib8,Arg34]GLP-1-(7-36)amide] | 0.001 to 0.1 | –
4 | CC[C@H](C)[C@H](NC(=O)[C@H](Cc1ccccc1)NC(=O)[C@H](CCC(=O)O)NC(=O)[C@H](CCCNC(=N)N)NC(=O)[C@H](C)NC(=O)[C@H](C)NC(=O)[C@H](CCC(N)=O)NC(=O)[C@H](CCC(=O)O)NC(=O)[C@H](CCC(=O)O)NC(=O)[C@H](CC(C)C)NC(=O)[C@H](Cc1ccc(O)cc1)NC(=O)[C@H](CO)NC(=O)[C@H](CO)NC(=O)[C@@H](NC(=O)[C@H](CC(=O)O)NC(=O)[C@H](CO)NC(=O)[C@@H](NC(=O)[C@H](Cc1ccccc1)NC(=O)[C@@H](NC(=O)CNC(=O)[C@H](CCC(=O)O)NC(=O)C(C)(C)NC(=O)[C@@H](N)Cc1c[nH]cn1)[C@@H](C)O)[C@@H](C)O)C(C)C)C(=O)N[C@@H](C)C(=O)N[C@@H](Cc1c[nH]c2ccccc12)C(=O)N[C@@H](CC(C)C)C(=O)N[C@H](C(=O)N[C@@H](CCCNC(=N)N)C(=O)NCC(=O)N[C@@H](CCCNC(=N)N)C(=O)NCC(=O)N[C@@H](CCCCNC(=O)COCCOCCNC(=O)CC[C@H](NC(=O)CC[C@H](NC(=O)CCCCCCCCCCCNC(=O)CCCS(=O)(=O)NC(=O)CCCCCCCCCCCCCCCc1nnn[nH]1)C(=O)O)C(=O)O)C(N)=O)C(C)C [Example 46, [Aib8,Glu22,Arg26,Arg34]GLP-1-(7-37)Lys[2-(2-{2-[(S)-4-Carboxy-4-((S)-4-carboxy-4-{12-[4-(16-(1H-tetrazol-5-yl)hexadecanoylsulfamoyl)butyrylamino]dodecanoylamino}-butyrylamino)butyrylamino]ethoxy}ethoxy)acetyl]amide] (H-H[Aib]EGTFTSDVSSYLEEQAAREFIAWLVRGRGK([AEEA-γGlu-γGlu-12Ado-X1])-NH2) | 0.001 to 0.1 | –

More lines, now with the values ahead:

Row | EC50 [µM] | EC50 at 20 h [µM] | Structure (SMILES)
5 | – | 0.3 to 0.8 | CC[C@H](C)[C@H](NC(=O)[C@H](Cc1ccccc1)NC(=O)[C@H](CCC(=O)O)NC(=O)[C@H](CCCNC(=N)N)NC(=O)[C@H](C)NC(=O)[C@H](C)NC(=O)[C@H](CCC(N)=O)NC(=O)CNC(=O)[C@H](CCC(=O)O)NC(=O)[C@H](CC(C)C)NC(=O)[C@H](Cc1ccc(O)cc1)NC(=O)[C@H](CO)NC(=O)[C@H](CO)NC(=O)[C@@H](NC(=O)[C@H](CC(=O)O)NC(=O)[C@H](CO)NC(=O)[C@@H](NC(=O)[C@H](Cc1ccccc1)NC(=O)[C@@H](NC(=O)CNC(=O)[C@H](CCC(=O)O)NC(=O)[C@H](C)NC(=O)CCc1c[nH]cn1)[C@@H](C)O)[C@@H](C)O)C(C)C)C(=O)N[C@@H](C)C(=O)N[C@@H](Cc1c[nH]c2ccccc12)C(=O)N[C@@H](CC(C)C)C(=O)N[C@H](C(=O)N[C@@H](CCCNC(=N)N)C(=O)NCC(=O)N[C@@H](CCCNC(=N)N)C(=O)N[C@@H](CCCCNC(=O)COCCOCCNC(=O)COCCOCCNC(=O)CC[C@H](NC(=O)[C@H]1CC[C@H](CNC(=O)CCCCCCCCCCCCCCCCCCC(=O)O)CC1)C(=O)O)C(=O)O)C(C)C [Example 31, N-epsilon37-[2-(2-{2-[2-(2-{2-[(S)-4-Carboxy-4-({trans-4-[(19-carboxy-nonadecanoylamino)methyl]cyclohexanecarbonyl}amino)butyrylamino]ethoxy}ethoxy)acetylamino]ethoxy}ethoxy)acetyl][DesaminoHis7,Arg26,Arg34,Lys37]GLP-1-(7-37)]
6 | – | 0.1 to 0.15 | CC[C@H](C)[C@H](NC(=O)[C@H](Cc1ccccc1)NC(=O)[C@H](CCC(=O)O)NC(=O)[C@H](CCCNC(=N)N)NC(=O)[C@H](C)NC(=O)[C@H](C)NC(=O)[C@H](CCC(N)=O)NC(=O)[C@H](CCC(=O)O)NC(=O)[C@H](CCC(=O)O)NC(=O)[C@H](CC(C)C)NC(=O)[C@H](Cc1ccc(O)cc1)NC(=O)[C@H](CO)NC(=O)[C@H](CO)NC(=O)[C@@H](NC(=O)[C@H](CC(=O)O)NC(=O)[C@H](CO)NC(=O)[C@@H](NC(=O)[C@H](Cc1ccccc1)NC(=O)[C@@H](NC(=O)CNC(=O)[C@H](CCC(=O)O)NC(=O)[C@H](C)NC(=O)CCc1c[nH]cn1)[C@@H](C)O)[C@@H](C)O)C(C)C)C(=O)N[C@@H](C)C(=O)N[C@@H](Cc1c[nH]c2ccccc12)C(=O)N[C@@H](CC(C)C)C(=O)N[C@H](C(=O)N[C@@H](CCCNC(=N)N)C(=O)NCC(=O)N[C@@H](CCCNC(=N)N)C(=O)NCC(=O)N[C@@H](CCCCNC(=O)COCCOCCNC(=O)CC[C@H](NC(=O)COCCOCCNC(=O)CC[C@H](NC(=O)C1CCN(C(=O)CCCCCCCCCCCCCCCCCCC(=O)O)CC1)C(=O)O)C(=O)O)C(=O)O)C(C)C [Example 58, [DesaminoHis7,Glu22,Arg26,34]-GLP-1 (7-37)-Lys-(2-(2-{2-[(S)-4-carboxy-4-(2-{2-[2-((S)-4-carboxy-4-{[1-(19-carboxynonadecanoyl)piperidine-4-carbonyl]amino}butyrylamino)ethoxy]ethoxy}acetylamino)butyrylamino]ethoxy}ethoxy)acetyl) peptide] (Desaminohistidyl-AEGTFTSDVSSYLEEQAAREFIAWLVRGRGK([AEEA-γGlu-AEEA-γGlu-Inp-C20 diacid])-OH)
7 | > 2 | – | CC[C@H](C)[C@H](NC(=O)[C@H](Cc1ccccc1)NC(=O)[C@H](CCC(=O)O)NC(=O)[C@H](CCCNC(=N)N)NC(=O)[C@H](C)NC(=O)[C@H](C)NC(=O)[C@H](CCC(N)=O)NC(=O)CNC(=O)[C@H](CCC(=O)O)NC(=O)[C@H](CC(C)C)NC(=O)[C@H](Cc1ccc(O)cc1)NC(=O)[C@H](CO)NC(=O)[C@H](CO)NC(=O)[C@@H](NC(=O)[C@H](CC(=O)O)NC(=O)[C@H](CO)NC(=O)[C@@H](NC(=O)[C@H](Cc1ccccc1)NC(=O)[C@@H](NC(=O)CNC(=O)[C@H](CCC(=O)O)NC(=O)[C@H](C)NC(=O)CCc1c[nH]cn1)[C@@H](C)O)[C@@H](C)O)C(C)C)C(=O)N[C@@H](C)C(=O)N[C@@H](Cc1c[nH]c2ccccc12)C(=O)N[C@@H](CC(C)C)C(=O)N[C@H](C(=O)N[C@@H](CCCNC(=N)N)C(=O)NCC(=O)N[C@@H](CCCNC(=N)N)C(=O)N[C@@H](CCCCNC(=O)COCCOCCNC(=O)COCCOCCNC(=O)CC[C@H](NC(=O)[C@H]1CC[C@H](CNC(=O)CCCCCCCCCCCCCCCCCCC(=O)O)CC1)C(=O)O)C(N)=O)C(C)C [Example 25]
